In US20240277829A1, “HIV-1 VACCINATION AND SAMT-247 MICROBICIDE TO PREVENT HIV-1 INFECTION” (priority 2021, published 2024):

What was measured:
[1] = test system: macaque rectal mucosal NK cells; assay: Frequencies and cytokine levels of macaque rectal mucosal NK/ILCs following SAMT-247 and PMA stimulation; format: cell-based
Description: Additionally, rectal tissue from 9 macaques was used for an in vitro study. The age-matched macaques from this separate study (P204) included 4 animals vaccinated against HIV and 5 naïve animals, all challenged with SHIV. Rectal tissue was obtained post challenge from 7 infected and 2 uninfected animals for the P204 study analysis. Extra cells were available from that collection and were used here for the in vitro study.
Frequencies and cytokine levels of macaque rectal mucosal NK cells and T cells following SAMT-247 and PMA stimulation. NK/ILC and T cell frequencies and cytokine levels were measured in macaque rectal mucosa. Freshly collected rectal biopsies were processed to single cells and cultured in R10 in the presence/or absence of SAMT-247 and/or PMA for 12 hours. Subsequently, cells were stained for live cells with Live/Dead Blue dye (cat. #L34962, 0.5 μl) from Thermofisher; followed by surface staining with the following: BUV737 anti-CD3 (SP34-2; cat. #741872, 5 μl), BV711 anti-CD4 (L200; cat. #563913, 5 μl), BV650 anti-NKp44 (P44-8; cat. #744302, 5 μl), Alexa700 anti-CD20 (2H7; cat. #560631, 5 μl), BV786 anti-CD45 (D058-1283; cat. #563861, 5 μl) from BD Biosciences; APC-H7 anti-CD11b (ICRF44; cat. #47-0118-42, 5 μl), PE-Cy5 anti-CD95 (ICRF44; cat. #15-0959-42, 5 μl) from eBioscience; BV570 anti-CD8 (RPA-T8; cat. #301038, 5 μl), BV605 anti-CCR6 (G034E3; cat. #353420, 5 μl), APC anti-CXCR3 (G025H7; cat. #353708, 5 μl), from Biolegend and PE-Cy7 anti-NKG2A (Z199; cat. #B10246, 5 μl) from Beckman coulter for 30 minutes at room temperature. This was followed by permeabilization with a FOX3-transcription buffer set (cat. #00-5523-00) from eBioscience according to the manufacture's recommendation and subsequently intracellular staining with the following: BV750 anti-TNF-α (MAB11; cat. #566359, 5 μl), BUV395 anti-IFN-γ (B27; cat. #563563, 5 μl), BV510 anti-GranB (GB11; cat. #563388, 5 μl), BV421 anti-IL-10 (JES3-9D7; cat. #564053, 5 μl) from BD Biosciences; PE-Cy5.5 anti-IL-17 (BL168; cat. #512314, 5 μl) from Biolegend; and FITC anti-Perforin (pf-344; cat. #3465-7, 5 μl) from MABTECH for 30 minutes at room temperature. Flow cytometry acquisitions were performed on a FACSymphony A5 and examined using FACSDiva software (BD Biosciences).

[2] = test system: NKG2A^+ cells; assay: Zinc chelation: macaque blood NK cells, SAMT-247 and/or gp120 peptides with or without TPEN; format: cell-based; details: presence or absence of gp120 peptide
Experimental: Zinc chelation: The frequencies and cytokine levels of NK cells, monocytes and T cells were measured in macaque blood. Cryopreserved PBMCs were thawed and cultured in R10 in the presence/or absence of SAMT-247 and/or gp120 peptides for 12 hours. Cells were incubated with or without Zinc chelator TPEN (cat. #P4413-100 MG, 5 μM) for 12 h. Subsequently, cells were stained for live cells with Live/Dead Blue dye (cat. #L34962, 0.5 μl) from Thermofisher; followed by surface staining with the following: Alexa 700 anti-CD3 (SP34-2; cat. #557917, 5 μl), BV711 anti-CD4 (L200; cat. #563913, 5 μl), BB700 anti-CD8 (RPA-T8; cat. #566452, 5 μl), BUV737 anti-CD20 (2H7; cat. #612848, 5 μl), PE anti-CD45 (D058-1283; cat. #552833, 5 μl), BV786 anti-CCR5 (3A9; cat. #565001, 5 μl), BV496 anti-CD16 (3G8; cat. #612944, 5 μl), BUV661 anti-HLA-DR (G46-6; cat. #612980, 5 μl), BUV805 anti-CD14 (M5E2; cat. #565779, 5 μl) from BD Biosciences; APC-H7 anti-CD11b (ICRF44; cat. #47-0118-42, 5 μl), PE-Cy5 anti-CD95 (ICRF44; cat. #15-0959-42, 5 μl) from eBioscience; APC anti-α4β7, provided by the NIH Nonhuman Primate Reagent Resource (R24 OD010976, and NIAID contract HHSN272201300031C); BV605 anti-CCR6 (G034E3; cat. #353420, 5 μl), BV650 anti-CXCR3 (G025H7; cat. #353730, 5 μl), from Biolegend and PE-Cy7 anti-NKG2A (Z199; cat. #B10246, 5 μl) from Beckman coulter for 30 minutes at room temperature. This was followed by permeabilization with a FOX3-transcription buffer set (cat. #00-5523-00) from eBioscience according to the manufacture's recommendation and subsequently intracellular staining with the following: BV750 anti-TNF-α (MAB11; cat. #566359, 5 μl), BUV395 anti-IFN-γ (B27; cat. #563563, 5 μl), BV510 anti-GranB (GB11; cat. #563388, 5 μl), BV421 anti-IL-10 (JES3-9D7; cat. #564053, 5 μl), PE-CF594 anti-Ki67 (B56; cat. #567120, 5 μl) from BD Biosciences and FITC anti-Perforin (pf-344; cat. #3465-7, 5 μl) from MABTECH for 30 minutes at room temperature. Flow cytometry acquisitions were performed on a FACSYMPHONY™ A5 and examined using FACSDIVA™ software (BD Biosciences).

[3] = macaque rectal mucosal NK cells, PMA

Compound: CC(=O)Sc1ccccc1C(=O)NCCC(N)=O [SAMT-247]
- Cytokine ([1]; NKp44^+, Mucosa, PMA): >IL-17
- Function ([1]; NKp44^+, Mucosa, PMA): >Epithelium
- IFN-γ and TNF-α production [1, 3]: decreased
- NKG2A^+ cells expressing granzyme B and perforin [1, 3]: increased
- percentage of NKp44^+ cells producing IL-17 ([1]; mucosal cells from 9 macaques exposed in vitro): augmented
- ability of NKG2A^−NKp44^− cells to produce IFN-γ ([1]; mucosal cells in vitro): tended to decrease
- frequency of the NKG2A^−NKp44^− population ([1]; mucosal cells in vitro): decreased
- frequency of NKG2A^+ cells [2]: increased
